Tested on: nerve/muscle co-culture injured by glutamate
Assay: glutamate toxicity on nerve/muscle co-culture (NMJ area, neurite network)
Type: cell-based, human muscle, rat spinal cord explants
Conditions: glutamate 60 μM, 20 min
Method: Human muscle (promocell, Batch: 3061107) was prepared according to a previously described method from portions of a biopsy from a healthy subject (Braun et al., (1996) J. Neurol Sci. 136: 17-23). The human muscle cell line was established from dissociated cells (21 000 cells per wells), plated in gelatin-coated 0.1% (Sigma, Batch: 051M0012V) in water on 48 wells plate (greiner, Batch: E13111ME) and grows in a proliferation medium consisting of mix of 62% of MEM medium (PAN, Batch: 2761113) and 25% of M199 medium (PAN, Batch: 6720314) supplemented with glutamine 2 mM (PAN, Batch: 8150713), human insulin 10 μg/ml (PAN, Batch: 1481013), Human recombinant Epidermal growth factor 10 ng/ml (EGF, GIBCO, Batch: 1291552A), human recombinant Fibroblast growth factor basic 2 ng/ml (bFGF, PAN, Batch: H080113), foetal calf serum 10% (FCS, GIBCO, Batch: 41Q7218K) and 2% of Penicillin 10.000 U/ml and Streptomycin 10.000 μg/ml (PS, PAN, Batch: 1451013). The medium was changed every 2 days. Five days after the start of culture, immediately after satellite cell fusion, whole transverse slices of 13-day-old rat Wistar embryos (Janvier, France) spinal cords with 4 dorsal root ganglia (DRG) attached are placed on the muscle monolayer (one explant per well in the central area). DRG are necessary to achieve a good ratio of innervation. Innervated cultures were maintained in a mixed (67%/25%) medium composed of MEM and medium 199, supplemented with 5% FCS, insulin 5 μg/ml, glutamine 2 mM and 2% PS. After 24 h of co-culture, neurites were observed growing out of the spinal cord explants. These neurites made contacts with myotubes and induced the first contractions after ˜8 days. Quickly thereafter, innervated muscle fibres located in the proximity to the spinal cord explants, were virtually continuously contracting. Innervated fibres were morphologically and spatially distinct from the non-innervated ones and could easily be distinguished from them.
On day 27, co-cultures were pre-incubated 1 hour before glutamate application with test compounds (different concentrations) tested alone or in a mixture of the 3 compounds.
One hour after HA, CA or FA Compounds and mixture (HA/CA/FA) incubation, glutamate was added to a final concentration of 60 μM diluted in control medium still in presence of 3 compounds or mix of compounds for 20 min.
After 20 min injuries, co-cultures were washed and individual test compounds and mixture were added for an additional 48 h.
After 48 h, the cocultures were prepared for end points evaluation (see below).
After 48H of intoxication, cells were incubated with 500 nM α-bungarotoxin coupled with Alexa 488 (Molecular probes, Batch: 1434893) during 15 min in culture innervations medium at 37° C. to detect NMJ. After 2 washing in PBS (Pan Biotech, Batch: 7560414), cells were fixed by a solution of 4% of paraformaldehyde (Sigma Aldrich, Batch: SLBF7274V) in PBS, pH=7.3 for 20 min at room temperature.
The cells were washed 2 times in PBS and then permeabilized and non-specific sites were blocked with a solution of PBS containing 0.1% of saponin (Sigma-Aldrich, Batch: BCBJ8417V) and 1%0 FCS (Gibco, Batch: 41F0423K) for 15 min at room temperature, co-cultures were incubated with a mouse monoclonal anti-neurofilament 200 KD antibody (NF, Sigma Aldrich, Batch: 053M4756) at the dilution of 1/400 in PBS containing 1% FCS, 0.1% saponin, for 2 h at room temperature. Antibody against NF stained the axon of motor neuron. […] Nuclei of neurons were labeled by Hoechst solution, a nuclear fluorescent marker at […] in the same solution (Hoechst solution, SIGMA, batch: 011M4004V).
The NMJ mean size (area) of NMJs and the total length of neurite were assessed under the experimental conditions described above (see Combes et al., 2015). For each condition, 20 pictures per well were taken in the center area using ImageXpress (Molecular device) with 10× magnification. All images were taken under the same conditions. […]

## COc1cc(/C=C/C(=O)O)ccc1O [FA, ferulic acid]
FA lowest and highest concentrations
  NMJ area (mean size): inactive
FA only at 100 nM
  NMJ area (mean size): able to protect
Highest dose tested (10 μM)
  neurite network (area of innervation): moderate effect

## O=C(O)/C=C/c1ccc(O)c(O)c1 [CA, caffeic acid]
CA added 1 h before glutamate
  neurite network (area of innervation): slight protection
CA highest dose (5 nM)
  neurite network (area of innervation): significance was observed
CA low concentrations
  NMJ area (mean size): unable to protect
Only at the highest dose (5 nM)
  NMJ area (mean size): able to protect

## C/C=C1\[C@H]2C=C(C)C[C@]1(N)c1ccc(=O)[nH]c1C2 [HA, huperzine A, reference compound]
HA 100 nM
  NMJ area (mean size): significance was observed
HA 100 nM, without reaching the significance
  neurite network (area of innervation): slight neuroprotection
HA, all concentrations tested
  NMJ area (mean size): slight protective effect
  neurite network (area of innervation): no neuronal protective effect
